This note sets out measurements from paper PMC8266232, “Design, synthesis, and analysis of antiproliferative and apoptosis-inducing activities of nitrile derivatives containing a benzofuran scaffold: EGFR inhibition assay and molecular modelling study” (Journal of Enzyme Inhibition and Medicinal Chemistry, 2021).

Experiment [1] deals with HePG2 cells (hepatocellular carcinoma). Nature of the experiment: MTT antiproliferative assay, HePG2. Conditions: Homo sapiens, HepG2, MTT assay, HePG2, triplicate; read-out: In vitro cytotoxicity IC50, HePG2. It is filed as cell-based, human. On the procedure: (§1) The in vitro antiproliferative activity of all synthesised compounds was evaluated by an MTT assay according to the reported method[47]^,[48].
(§2) 2. Experimental procedure
(§3) 2.1. Antiproliferative screening
(§4) The in vitro antiproliferative activity of all synthesized compounds was evaluated by an MTT assay according to the reported method using five different human cancer cell lines, including […]
(§5) cervical carcinoma (HeLa), and human prostate cancer (PC-3). The cell lines were obtained from ATCC via a holding company for biological products and vaccines (VACSERA), Cairo, Egypt. The MTT assay is a colorimetric assay used for measuring the cellular growth based on the reduction of the yellow MTT to a purple formazan derivative by mitochondrial succinate dehydrogenase in viable cells. The color intensity of the formazan dye is correlated to the number of viable cells. The […]
(§6) IC50% values were calculated using dose response curves. The percentage of relative cell viability was calculated as (A570 of treated samples)/(A570 of untreated sample) × 100. The cytotoxic activity was defined as the concentration of the compound that caused 50% growth inhibition compared with the growth of an untreated cell. […]
(In general: Tetrazolium dyes change colour on reduction, which living cells bring about.)

Experiment [2] concerns HCT-116 cells (colorectal carcinoma). Nature of the experiment: MTT antiproliferative assay, HCT-116. Particulars: Homo sapiens, HCT-116, MTT assay, HCT-116, triplicate; read-out: In vitro cytotoxicity IC50, HCT-116. It counts as cell-based, human. As for the experimental part: as §1, §2, §3, §4, §5, §6
The test system of experiment [3] is MCF-7 cells (human breast adenocarcinoma). Nature of the experiment: MTT antiproliferative assay, MCF-7. It counts as cell-based. Particulars: Homo sapiens, MCF7, MTT assay, MCF-7, triplicate; read-out: In vitro cytotoxicity IC50, MCF-7. As for the experimental part:
as §1, §2, §3, §4, §5, §6

For experiment [4], the system named is PC3 cells (human prostate carcinoma). In words: MTT antiproliferative assay, PC3. It counts as cell-based. Particulars: PC-3, PC3, triplicate, read-out: In vitro cytotoxicity IC50, PC3. On the procedure:
as §1, §2, §3, §4, §5, §6

For experiment [5], the system named is HeLa cells (cervical carcinoma). In words: MTT antiproliferative assay, HeLa. It is filed as cell-based, human. Particulars: Homo sapiens, triplicate, read-out: In vitro cytotoxicity IC50, HeLa. On the procedure: as §1, §2, §3, §4, §5, §6
The next experiment deals with WI38 normal cell. In words: MTT cytotoxicity on normal fibroblast cells. It counts as cell-based. Particulars: Homo sapiens, WI-38; MTT assay, non tumour normal cell WI38.
A further experiment concerns the target T1, EGFR TK (Homo sapiens, UniProt P00533).
T1 construct: add 20 μl of diluted EGFR enzyme and incubate at 30°C for 40
In words: EGFR TK inhibition assay (luminescent, Kinase-Glo MAX). It is filed as biochemical. On the procedure:
2.2. Epidermal growth factor inhibition assay
In vitro luminescent EGFR tyrosine kinase assay, using Kinase-Glo® MAX as a detection reagent using DP‐Glo™ reagent that measures the adenosine diphosphate (ADP) formed from a kinase reaction, were performed; this luminescent signal positively correlates with ADP amount and kinase activity. In 17 μl of distilled water, 6 μl of Kinase assay buffer and 1 μl ATP and 1 μl PTK substrate were mixed (master mixture). In every well, mix 20 μl of the master mixture and 5 μl of Inhibitor solution (Test Inhibitor) for positive control, and use 5 μl of the same solution without inhibitor (Inhibitor buffer) as the blank solution; add 20 μl of diluted EGFR enzyme and incubate at 30°C for 40
In general terms: Kinase-Glo measures the ATP left after a reaction by luminescence.

The test system of experiment [6] is human caspase-3 (active) in HCT-116 cells. In words: Caspase-3 ELISA in HCT-116 cells. It is filed as cell-based. As for the experimental part:
(§7) Caspases are critical mediators of programmed cell death, that is, apoptosis. Caspase-3 is important in processes involving dissociation of the cell and the formation of the apoptotic element; therefore, it is regarded as one of the best biochemical hallmarks of apoptosis. […] The concentration of active caspase-3 was measured using the ELISA technique. In addition, the fluorescence density produced by the tested compounds is illustrated in Figure 4. […] The level of caspase-3 increased 5.7-fold compared to the control. Moreover, a considerable 7.3-fold increase in the caspase-3 level was detected following the treatment of the MCF-7 cells with compound 11. The bioluminescent intensities of caspase-3 indicated the apoptotic activity of compounds 3 and 11.
(§8) Afterward, measure luminescence using the
(§9) tested in triplicates.[36-38].
(§10) active caspase-3 [49]. […] The tested
(§11) Subsequently, 100 µL of an
(§12) incubated for 30 min at room temperature.
(§13) chromogen. […] The intensity of the resulting colored
A general note: In an ELISA, binding on a coated surface is turned into a signal by an enzyme label.

Experiment [7] deals with HCT-116 cells. Nature of the experiment: Annexin V-FITC/PI apoptosis assay, HCT-116. Conditions: HCT-116, 10 µM, 24 h.
Procedure: (§14) A comparison was made to the control (DMSO) and reference (gefitinib).
(§15) The cell line samples were analysed using FACSCalibur flow cytometer.
(§16) with PI. The cells were compared with the control, which was treated with DMSO.
Analysis of cellular apoptosis
(§17) concentration, respectively, and then incubated for 24 h. Following incubation, 1 –5 × 10^5 cells were
(§18) harvested and suspended in 500 µ L of the binding buffer, 5 µ L of annexin V-FITC, and 5 µL of PI.
(§19) annexin V-FITC conjugate is specially engineered to produce an enhanced fluorescence signal and
(§20) photostability. The annexin V-FITC kit included annexin V-FITC for detecting apoptosis as well as PI
(§21) for detecting necrosis. Thus, apoptosis and necrosis could be effectively differentiated. Detection and
(§22) analysis of the annexin V-FITC binding by flow cytometry was conducted using a FITC signal
(§23) detector (typically FL1). PI staining was evaluated by a phycoerythrin emission signal detector
The subject of experiment [8] is HCT-116 cells. In words: Cell cycle analysis by PI flow cytometry, HCT-116. Conditions: HCT-116, 10 µM, 24 h.
Procedure: as §14
(§24) Cell cycle analysis and induction of apoptosis
(§25) Flow cytometry analysis of the cell cycle distribution
(§26) incubation period, the cells were collected, centrifuged, and ﬁxed with ice-cold ethanol (70%). The cells were subsequently treated with a buffer containing RNAse A and 0.1% Triton X-100, and stained
(§27) with PI. The cells were compared with the control, which was treated with DMSO. The DNA content
was measured by flow cytometry [50-52].
The test system of experiment [9] is human caspase-3 (active) in MCF-7 cells. Nature of the experiment: Caspase-3 ELISA in MCF-7 cells. It counts as cell-based. As for the experimental part:
as §7, §8, §9, §10, §11, §12, §13

For experiment [10], the system named is MCF-7 cells. In words: Annexin V-FITC/PI apoptosis assay, MCF-7. Conditions: MCF-7, 10 µM, 24 h.
Procedure: as §14, §15, §16
Analysis of cellular apoptosis
as §17, §18, §19, §20, §21, §22, §23
The test system of experiment [11] is MCF-7 cells. Nature of the experiment: Cell cycle analysis by PI flow cytometry, MCF-7. Particulars: MCF-7, 10 µM, 24 h.
Procedure: as §14, §24, §25, §26, §27
was measured by flow cytometry [50-52].

T1 sequence (P00533 25-1210): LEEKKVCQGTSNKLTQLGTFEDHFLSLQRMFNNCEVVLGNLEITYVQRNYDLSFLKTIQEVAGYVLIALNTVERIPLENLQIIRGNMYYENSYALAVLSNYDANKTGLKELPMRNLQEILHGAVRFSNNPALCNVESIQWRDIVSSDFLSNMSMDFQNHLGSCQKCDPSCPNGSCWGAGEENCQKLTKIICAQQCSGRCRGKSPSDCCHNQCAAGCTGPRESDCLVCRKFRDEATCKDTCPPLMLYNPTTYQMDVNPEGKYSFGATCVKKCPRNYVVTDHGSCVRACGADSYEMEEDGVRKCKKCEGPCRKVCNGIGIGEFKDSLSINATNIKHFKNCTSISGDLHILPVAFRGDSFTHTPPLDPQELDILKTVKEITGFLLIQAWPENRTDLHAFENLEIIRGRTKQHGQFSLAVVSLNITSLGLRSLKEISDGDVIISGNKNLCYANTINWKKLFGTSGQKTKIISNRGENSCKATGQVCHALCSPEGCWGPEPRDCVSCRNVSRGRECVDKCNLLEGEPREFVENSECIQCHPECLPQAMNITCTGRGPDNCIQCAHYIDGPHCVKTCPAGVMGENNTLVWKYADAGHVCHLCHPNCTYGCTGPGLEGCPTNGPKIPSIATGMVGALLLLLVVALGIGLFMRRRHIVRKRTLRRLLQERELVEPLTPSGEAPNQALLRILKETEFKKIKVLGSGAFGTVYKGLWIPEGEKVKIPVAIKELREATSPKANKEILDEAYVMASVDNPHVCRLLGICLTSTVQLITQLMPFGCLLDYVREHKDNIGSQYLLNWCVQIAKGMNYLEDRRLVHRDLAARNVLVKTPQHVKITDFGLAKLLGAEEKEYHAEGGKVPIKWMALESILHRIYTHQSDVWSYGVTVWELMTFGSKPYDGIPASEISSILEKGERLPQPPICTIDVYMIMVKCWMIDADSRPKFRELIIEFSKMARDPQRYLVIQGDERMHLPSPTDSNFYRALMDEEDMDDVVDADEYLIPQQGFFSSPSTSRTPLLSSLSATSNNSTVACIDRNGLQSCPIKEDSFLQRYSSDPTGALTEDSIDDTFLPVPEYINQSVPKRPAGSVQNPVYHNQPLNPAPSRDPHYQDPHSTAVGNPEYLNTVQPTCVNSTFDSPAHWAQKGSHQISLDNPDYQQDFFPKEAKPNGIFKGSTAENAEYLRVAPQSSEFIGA

What is called IC50 is the point on the concentration scale where inhibition reaches its midpoint. For the compound `CN(C)/C=C/C(=C(C#N)C#N)c1cc2ccccc2o1` [Compound 3, (E)-2-(1-(benzofuran-2-yl)-3-(dimethylamino)allylidene)malononitrile], the IC50 in [1] worked out at 40 ± 2.5 µM; in [2], 10.8 ± 1 µM; in experiment [3], 27.4 ± 1.8 µM; in [4] it was 44.5 ± 3.5 µM; in experiment [5], 69 ± 3.9 µM; with WI38 normal cell, 63.1 ± 3.43 µM. Also, 0.93 µM corresponded to half-maximal inhibition on EGFR TK (IC50). For the same compound, the “Caspase-3 Conc.” value in experiment [6] (24 h treatment, ELISA, control 63.51) was 363.4 pg/mL. In [6] (compared to the control), the “Caspase-3 level, Fold” value is given as 5.7 fold. Moreover, the Late apoptosis with HCT-116 cells [7] (control 0.11) is recorded as 5.79%. Moreover, the Necrosis with HCT-116 cells [7] (control 0.12) was found to be 1.32%. Further, the Early apoptosis in the experiment on HCT-116 cells [7] (control 0.16) was 5.95%. Besides, the “Apoptosis, Total” value in the experiment on HCT-116 cells [7] (control 0.39) came out at 13.06%. For the same compound, the “%Pre/G1” value in the experiment on HCT-116 cells [8] (control 0.39, '% Apoptosis' in Figure 5A) turned out to be 13.06%. In addition, the “%G2/M” value in the experiment with HCT-116 cells [8] (control 4.19) is 12.62%. Besides, the “%S” value in the experiment with HCT-116 cells [8] (control 25.21) was found to be 20.91%. Also, the “%G0/G1” value with HCT-116 cells [8] (control 70.21) is 53.41%.
For the compound `N#Cc1c(-c2cc3ccccc3o2)ccnc1NCCc1ccccc1` [Compound 11, 4-(Benzofuran-2-yl)-2-(phenethylamino)nicotinonitrile], the IC50 in experiment [1] amounted to 20.4 ± 1.6 µM; in experiment [2], 46.1 ± 2.7 µM; in [3], 14.6 ± 1.3 µM; in experiment [4] it was 18.8 ± 1.5 µM; in [5] it was 32.1 ± 1.9 µM; in the experiment on WI38 normal cell it was 94.5 ± 5.13 µM. The same compound gave an IC50 on EGFR TK of 0.81 µM. Further, in [9] (ELISA, control 60.7), the “Caspase-3 Conc.” value came to 440.08 pg/mL. Besides, the “Caspase-3 level, Fold” value in experiment [9] (compared to the control) is 7.3 fold. Moreover, the Necrosis in the experiment on MCF-7 cells [10] (control 0.15) stood at 1.23%. This compound also showed an Early apoptosis in the experiment with MCF-7 cells [10] (control 0.16) of 6.89%. Also, the Late apoptosis with MCF-7 cells [10] (control 0.24) is listed as 8.13%. For the same compound, the “Apoptosis, Total” value in the experiment with MCF-7 cells [10] (control 0.55) is reported as 16.25%. The “%Pre/G1” value in the experiment with MCF-7 cells [11] (control 0.55, '% Apoptosis' in Figure 6A) was determined as 16.25%. Moreover, the “%G2/M” value in the experiment on MCF-7 cells [11] (control 3.66) stood at 15.28%. Also, the “%S” value in the experiment with MCF-7 cells [11] (control 27.37) came out at 21.36%. Besides, the “%G0/G1” value with MCF-7 cells [11] (control 66.42) is recorded as 47.11%.
